Test results reported in PubChem BioAssay AID1963843 (Molecular Pharmacology Branch, DTP, NCI, 2024).
pIC50: −log10 of the molar value.

System: 616215-338-R-J1-PDC complex spheroid viability
Experiment: Anticancer human tumor 616215-338-R-J1-PDC patient-derived colon adenocarcinoma cell line growth inhibition [POLQ]
Settings: for pIC50: curve of first compound; for viability, T/C: stronger effect = lower value
Protocol: Multicellular complex tumor spheroid response to Polymerase (POL) inhibitors (novobiocin, ART-558, RP6685) in combination with a variety of drugs and investigational agents in selected tumor cell lines
The POL inhibitors (novobiocin, ART-558, and RP6685) were evaluated both individually and in combination with standard of care and investigational anticancer small molecules within a complex spheroid model of solid tumors. . Complex spheroids include a stromal component modeled by human endothelial cells (HUVEC) and fibroblasts modeled by human mesenchymal stem cells (MSCs). The concentration ranges selected for each drug and investigational agent were based upon clinically achievable concentrations if the clinical Cmax of the agent was known.
Compounds. The drugs and investigational agents: novobiocin (NSC847541), ART-558 (NSC835418), RP-6685 (NSC848927), peposertib (NSC802822), ceralasertib (NSC780249), elimusertib (NSC800525), camonsertib (NSC841442), AZD-1390 (NSC803789), olaparib (NSC753686), talazoparib (NSC767125), rucaparib (NSC756644), sotorasib (NSC818433), MRTX-1133 (NSC836407), SN-38 (NSC673596), topotecan (NSC609699), epotoside (NSC141540), doxorubicin (NSC123127), gemcitabine (NSC613327), 5-fluorouracil (NSC19893), paclitaxel (NSC125973), vemurafenib (NSC761431), MSA-2 (NSC828583), SN-011 (NSC837082), adavosertib (NSC754352), prexasertib (NSC758257), carboplatin (NSC241240) and oxaliplatin (NSC266046), were obtained from the National Cancer Institute (NCI) Developmental Therapeutics Program Chemical Repository (21). The FDA-approved anticancer drug set is available from the Developmental Therapeutics Program at https://dtp.cancer.gov/organization/dscb/obtaining/. […] The stock solutions were prepared in dimethyl sulfoxide (DMSO, Sigma-Aldrich, St. Louis, MO, cat. D2650), except for the platinum compounds which were prepared in saline (Quality Biological, Gaithersburg, MD, cat. 114-055-101), at 800-fold the tested concentration and stored at -70 degrees C prior to their use. All drugs and investigational agents were tested over a range starting from a high concentration at or near the clinical Cmax and decreasing in half-log increments. If the clinical Cmax for an agent had not been determined, the highest concentration tested was 10 microM, except for SN-38, which was tested at a high concentration of 1 microM.
Cell Culture. All cells were maintained in an incubator at 37 degrees C and 5% CO2 with 95% humidity. The PDC lines were cultured according to standard operating procedures established by the NCI PDMR (https://pdmr.cancer.gov). Table 3 of the manuscript, lists the cell lines along with the number of the three cell types plated to form the mct-spheroids and media for tumor cell growth. After thawing, all PDC lines, except 997537-175-T-J1-PDC and 415267-285-R-J2-PDC, were cultured in Matrigel-coated flasks prepared with a working solution of 1X Ham's F-12 nutrient mix, without supplementation (Thermo Fisher Scientific, cat. 11765054), 100 U/mL penicillin-streptomycin (Thermo Fisher Scientific, cat. 15140122), and 2.5% Matrigel (Corning Inc., Corning, NY, cat. 354248) for the first three passages. The two PDC lines 997537-175-T-J1-PDC and 415267-285-R-J2-PDC were cultured on uncoated flasks. The 857933-349-R-J2-PDC line was cultured in 6C/Colon 1B media containing advanced DMEM/F-12 (Thermo Fisher Scientific, cat. 12634028), 10 mM HEPES (Thermo Fisher Scientific, cat. 15630080), 1X GlutaMAX supplement (Thermo Fisher Scientific, cat. 35050061), 0.1 mg/mL primocin (InvivoGen, San Diego, CA, cat. ant-pm-2), 10% defined fetal bovine serum, heat inactivated (HyClone Laboratories Inc., Logan, UT, cat. SH30070.03HI), 50% L-WRN conditioned media (ATCC, cat. CRL-3276), 1.25 mM N-Acetyl-L-cysteine (Sigma-Aldrich, cat. A9165), 10 mM nicotinamide (Sigma-Aldrich, cat. N0636), 1X B-27 supplement (Thermo Fisher Scientific, cat. 17504044), 1X N-2 supplement (Thermo Fisher Scientific, cat. […]
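Note: spheroids exposed to compounds for one week before readout.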
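Throughout, for viability, T/C: percent viability relative to DMSO vehicle wells taken as 100%.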

CC1COCCN1c1cc(C2(O)CC3CCC(C2)O3)c2cnn(-c3ccn[nH]3)c2n1 (configuration not stated) + Cc1cccc(N(C)C(=O)C2C(O)CCN2c2nc(C)cc(C(F)(F)F)c2C#N)c1
pIC50 (second compound 0.0316 µM): 5.41 | pIC50 (second compound 0.1 µM): 5.53 | pIC50 (second compound 0.316 µM): 5.56 | pIC50 (second compound 1 µM): 5.42 | pIC50 (second compound 3.16 µM): 5.37 | pIC50 (second compound 10 µM): 5.85 | viability, T/C (second compound 0.0316 µM, first compound 0.0316 µM): 98.1% | viability, T/C (second compound 0.0316 µM, first compound 0.1 µM): 102% | viability, T/C (second compound 0.0316 µM, first compound 0.316 µM): 76.6% | viability, T/C (second compound 0.0316 µM, first compound 1 µM): 65.3% | viability, T/C (second compound 0.0316 µM, first compound 3.16 µM): 56.2% | viability, T/C (second compound 0.0316 µM, first compound 10 µM): 38.9% | viability, T/C (second compound 0.1 µM, first compound 0.0316 µM): 101% | viability, T/C (second compound 0.1 µM, first compound 0.1 µM): 99.1% | viability, T/C (second compound 0.1 µM, first compound 0.316 µM): 76.2% | viability, T/C (second compound 0.1 µM, first compound 1 µM): 71.7% | viability, T/C (second compound 0.1 µM, first compound 3.16 µM): 46.5% | viability, T/C (second compound 0.1 µM, first compound 10 µM): 33.6% | viability, T/C (second compound 0.316 µM, first compound 0.0316 µM): 106% | viability, T/C (second compound 0.316 µM, first compound 0.1 µM): 103% | viability, T/C (second compound 0.316 µM, first compound 0.316 µM): 74.9% | viability, T/C (second compound 0.316 µM, first compound 1 µM): 61.4% | viability, T/C (second compound 0.316 µM, first compound 3.16 µM): 53.5% | viability, T/C (second compound 0.316 µM, first compound 10 µM): 33.6% | viability, T/C (second compound 1 µM, first compound 0.0316 µM): 105% | viability, T/C (second compound 1 µM, first compound 0.1 µM): 94.7% | viability, T/C (second compound 1 µM, first compound 0.316 µM): 74.2% | viability, T/C (second compound 1 µM, first compound 1 µM): 70% | viability, T/C (second compound 1 µM, first compound 3.16 µM): 57.9% | viability, T/C (second compound 1 µM, first compound 10 µM): 33% | viability, T/C (second compound 3.16 µM, first compound 0.0316 µM): 106% | viability, T/C (second compound 3.16 µM, first compound 0.1 µM): 92% | viability, T/C (second compound 3.16 µM, first compound 0.316 µM): 71.1% | viability, T/C (second compound 3.16 µM, first compound 1 µM): 71.8% | viability, T/C (second compound 3.16 µM, first compound 3.16 µM): 58.1% | viability, T/C (second compound 3.16 µM, first compound 10 µM): 36.6% | viability, T/C (second compound 10 µM, first compound 0.0316 µM): 105% | viability, T/C (second compound 10 µM, first compound 0.1 µM): 94.6% | viability, T/C (second compound 10 µM, first compound 0.316 µM): 68.8% | viability, T/C (second compound 10 µM, first compound 1 µM): 53.4% | viability, T/C (second compound 10 µM, first compound 3.16 µM): 44% | viability, T/C (second compound 10 µM, first compound 10 µM): 30.8%
